Experimental data reported in US20070232650A1, “Malate salts, and polymorphs of (3S,5S)-7-[3-amino-5-methyl-piperidinyl]-1-cyclopropyl-1,4-dihydro-8-methoxy-4-oxo-3-quinolinecarboxylic acid” (The Procter & Gamble Company, priority 2006, published 2007).

Assays:
[1] = Solubility of isolated salt forms (salt screen)
[2] = Chemical stability of salt forms; format: physicochemical; details: upon scale up
Excerpt: Malate salts of 7-[3S-amino-5S-methyl-piperidinyl]-1-cyclopropyl-1,4-dihydro-8-methoxy-4-oxo-3-quinolinecarboxylic acid may be formed and isolated under practical manufacturing conditions. Use of the chiral malate for salt formation (as the racemic mix or the chirally pure forms) may in some instances assist with chiral purification of 7-[3S-amino-5S-methyl-piperidinyl]-1-cyclopropyl-1,4-dihydro-8-methoxy-4-oxo-3-quinolinecarboxylic acid. […] Using the same test methods, the anhydrate forms are shown to pick up moisture and spontaneously convert to the corresponding hydrated form upon exposure to humidity.

Row | Solubility ([1]; salt screen, Table 1) | Solubility ([1]; water) | Molecule | Ease of Isolation (degradation) [2]
1 |  | < 1 mg/mL | COc1c(N2C[C@@H](C)C[C@H](N)C2)ccc2c(=O)c(C(=O)O)cn(C3CC3)c12 [Freebase, (3S,5S)-7-[3-amino-5-methyl-piperidinyl]-1-cyclopropyl-1,4-dihydro-8-methoxy-4-oxo-3-quinolinecarboxylic acid] | 
2 | 12 (hemi- mg/ml |  | COc1c(N2C[C@@H](C)C[C@H](N)C2)ccc2c(=O)c(C(=O)O)cn(C3CC3)c12 (racemic) [DL-malate, hemi-hydrate, (3S,5S)-7-[3-amino-5-methyl-piperidinyl]-1-cyclopropyl-1,4-dihydro-8-methoxy-4-oxo-3-quinolinecarboxylic acid] | 
3 | 9 mg/mL |  | Fumarate | 

Row | Molecule | Solubility ([1]; salt screen, Table 1) | Solubility ([1]; water) | Ease of Isolation (degradation) [2]
4 | O=C(O)[C@H]1OC(O)[C@H](O)[C@@H](O)[C@@H]1O (stereo partly drawn) [D-Glucuronate] | 8 mg/mL |  | Degradation
